Experiment [1] addresses T1, recombinant LpxA enzyme (P. aeruginosa) (Pseudomonas aeruginosa, UniProt Q9X6P4).
T1 sequence (Q9X6P4 1-258): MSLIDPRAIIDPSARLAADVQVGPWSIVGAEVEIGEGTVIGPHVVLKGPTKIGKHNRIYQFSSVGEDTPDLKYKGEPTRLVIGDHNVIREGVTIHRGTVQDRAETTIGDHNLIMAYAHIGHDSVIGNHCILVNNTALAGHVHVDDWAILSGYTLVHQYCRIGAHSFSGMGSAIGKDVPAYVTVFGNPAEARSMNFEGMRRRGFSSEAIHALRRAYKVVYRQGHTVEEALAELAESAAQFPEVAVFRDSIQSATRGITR
As to the kind of experiment: LpxA in vitro substrate acylation assay with RapidFire MS analysis (P. aeruginosa). The class given is biochemical. The conditions noted are these: P. aeruginosa enzyme 0.5 nM, PaACP-C10, 30 min.

Experiment [2] relates to P. aeruginosa PAO397. As to the kind of experiment: Broth microdilution MIC, P. aeruginosa PAO397. The conditions noted are these: Pseudomonas aeruginosa, PAO397, 18 h, read-out: PAO397 KO MIC. The class given is cell-based.
Experiment [3] has as its system Wild-type P. aeruginosa PAO1. As to the kind of experiment: Broth microdilution MIC, wild-type P. aeruginosa PAO1. The format is cell-based. The conditions noted are these: Pseudomonas aeruginosa; wild-type P. aeruginosa PAO1, 37° C., 18 h; read-out: PAO1 WT MIC.
Experiment [4] addresses recombinant LpxA enzyme (E. coli) (Escherichia coli, UniProt P0A722). As to the kind of experiment: LpxA in vitro substrate acylation assay with RapidFire MS analysis (E. coli). The class given is biochemical. The method, then:
Exemplary compounds from the above Examples were tested for ability to inhibit LpxA activity using an in vitro substrate acylation assay with RapidFire™ MS analysis. Assay procedures and results are described below.
Reactions were carried out in a final volume of 30 μL with 25 mM HEPES (pH 7.3), 150 mM NaCl, 2 mM DTT, 0.01% BSA, 5 μM UDP-GlcNac, recombinant LpxA enzyme (0.5 nM P. aeruginosa or 1.0 nM E. coli, both produced at Evotec), 0.5 μM acyl-transfer reagent (decanoyl P. aeruginosa acyl-carrier protein [PaACP-C10] or myristoyl E. coli acyl-carrier protein [EcACP-C1-4], both produced at Evotec), and 1% DMSO containing test compound. After 30 min incubation at room temperature, reactions were stopped by addition of 30 μL of 10% TCA in water.
Samples were centrifuged (4350 rpm, 4° C., 5 min), and then subjected to RapidFire™ MS analysis on an Agilent RapidFire 300 coupled to an Agilent 6460 triple-quadrupole mass spectrometer. Analytes were retained on a C4 (type A) cartridge using the following solvents and flow rates: • Pump 1—H2O with 5 mM NH4OAc at 2.0 mL/min, • Pump 2—MeOH/H2O (90/10) at 1.5 mL/min, • Pump 3—MeOH/H2O (90/10) at 0.5 mL/min, and • Pump 4—ACN (organic)/H2O (aqueous). Substrate and product of the reaction were detected in negative mode ESI-MS/MS by MRM (multiple reaction monitoring) of transitions 606.0/385.0 (UDP-GlcNAc substrate) and 776.2/385.0 (UDP-3-O—(R-3-hydroxydecanoyl)-GlcNAc product, for P. aeruginosa LpxA assay) or 832.2/385.0 (UDP-3-O—(R-3-hydroxymyristoyl)-GlcNAc product, for E. coli LpxA assay).
For IC50 determinations, peak areas of the substrate and product were compared to compute the proportion of product formed by the LpxA enzyme at each compound concentration.

Experiment [5] relates to P. aeruginosa LESB58. As to the kind of experiment: Broth microdilution MIC, P. aeruginosa LESB58. The format is cell-based. The conditions noted are these: Pseudomonas aeruginosa; P. aeruginosa LESB58 clinical isolate, colistin-resistant, 37° C., 18 h.
Experiment [6] deals with P. aeruginosa PAO1 ΔmexABoprM. As to the kind of experiment: Broth microdilution MIC, P. aeruginosa PAO1 ΔmexABoprM. The format is cell-based. The conditions noted are these: Pseudomonas aeruginosa, PAO1, 18 h, read-out: PAO1 KO MIC. On the technique in general: Dilution methods test growth across graded concentrations, often in twofold steps.

Each structure is given as a SMILES string. In brackets after ≈: the same amount, converted by molar mass.

recombinant LpxA enzyme (E. coli), sequence (P0A722 whole entry): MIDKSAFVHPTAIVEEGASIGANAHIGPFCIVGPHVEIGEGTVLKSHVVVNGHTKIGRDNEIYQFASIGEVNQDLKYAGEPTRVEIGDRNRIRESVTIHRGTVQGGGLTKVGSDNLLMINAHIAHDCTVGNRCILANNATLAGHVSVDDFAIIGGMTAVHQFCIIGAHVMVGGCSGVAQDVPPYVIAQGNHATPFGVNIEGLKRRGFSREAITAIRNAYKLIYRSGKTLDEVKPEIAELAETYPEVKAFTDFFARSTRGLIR

For `N#Cc1ccc(CN(CC(=O)N2CCNCC2)C(=O)CSc2ccccc2Cl)cc1` [Compound No. 3], the results for the IC50 in experiment [1] and in experiment [4] were above 1000 nM and above 20000 nM, respectively. Also, the MIC in experiment [2] was 16 to 64 µg/mL (≈ 36.1 to 144 µM); in experiment [3] it was above 64 µg/mL.
The matching figures for `CC(=O)Nc1ccc(CN(Cc2nnc(N)o2)C(=O)CSc2ccccc2Cl)cc1` [compound 44]: 100 to 1000 nM, above 20000 nM, 16 to 64 µg/mL (≈ 35.9 to 144 µM) and above 64 µg/mL.
Take `Nc1nnc(CN(Cc2ccc(S(N)(=O)=O)cc2F)C(=O)CSc2cc(F)cc(F)c2Cl)o1` [compound 27]: the MIC in experiment [2] is below 1 µg/mL; in experiment [5], 1 to 16 µg/mL (≈ 1.92 to 30.7 µM); in experiment [3], above 64 µg/mL; in experiment [6], below 1 µg/mL. Moreover, in experiment [4], the IC50 was above 20000 nM.
For the molecule `N#Cc1ccc(CN(Cc2nnc(N)o2)C(=O)CCc2ccccc2Cl)cn1` [compound 16], the values for the IC50 in experiment [1] and in experiment [4] were 100 to 1000 nM and above 20000 nM, respectively. In addition, the MIC in experiment [2] was 1 to 16 µg/mL (≈ 2.52 to 40.3 µM); in experiment [3], above 64 µg/mL; in experiment [6], 16 to 64 µg/mL (≈ 40.3 to 161 µM).
Turning to `Cc1ncc(CN(Cc2ccc(C#N)cc2)C(=O)CSc2ccccc2Cl)o1` [compound 73], the 50% inhibitory concentration (IC50) is 100 to 1000 nM in experiment [1] and above 20000 nM in experiment [4]. Also, the figures for the MIC in experiment [2] and in experiment [3] were 1 to 16 µg/mL (≈ 2.43 to 38.8 µM) and above 64 µg/mL, respectively.
In the case of `N#Cc1ccc(CN(Cc2nnn[nH]2)C(=O)CSc2ccccc2Cl)cc1` [compound 54], the MIC was 16 to 64 µg/mL (≈ 40.1 to 160 µM) in experiment [2] and above 64 µg/mL in experiment [3]. Also, in experiment [4], the half-inhibitory concentration (IC50) was above 20000 nM.
Consider `C[C@@H](Oc1ccccc1Cl)C(=O)N(Cc1ccc(C#N)cc1)Cc1nnc(N)o1` [compound 36], for which the IC50 in experiment [1] was 100 to 1000 nM. The MIC in experiment [2] was below 1 µg/mL; in experiment [5], above 64 µg/mL; in experiment [3], above 64 µg/mL; in experiment [6], 16 to 64 µg/mL (≈ 38.8 to 155 µM).
Regarding `CCc1ccccc1OCC(=O)N(Cc1ccc(C#N)nc1)Cc1nnc(N)o1` [compound 19], the half-maximal inhibitory concentration (IC50) in experiment [1] was 20 to 100 nM. The minimum inhibitory concentration (MIC) in experiment [2] is below 1 µg/mL; in experiment [5], 16 to 64 µg/mL (≈ 40.8 to 163 µM); in experiment [3], above 64 µg/mL; in experiment [6], 1 to 16 µg/mL (≈ 2.55 to 40.8 µM).
With `CCc1ccccc1SCC(=O)N(Cc1ccc(C#N)nc1)Cc1nnc(N)o1` [Compound No. 7, N-[(5-Amino-1,3,4-oxadiazol-2-yl)methyl]-N-[(6-cyano-3-pyridyl)methyl]-2-(2-ethylphenyl)sulfanyl-acetamide], the concentration for half-maximal inhibition (IC50) in experiment [1] is below 20 nM. Also, the minimal inhibitory concentration (MIC) in experiment [2] was below 1 µg/mL; in experiment [5] it was 16 to 64 µg/mL (≈ 39.2 to 157 µM); in experiment [3], above 64 µg/mL; in experiment [6], 1 to 16 µg/mL (≈ 2.45 to 39.2 µM).
As for `N#Cc1ccc(CN(Cc2nnc(N)o2)C(=O)CSc2cccc(Cl)c2Cl)c(F)c1` [compound 57], the IC50 in experiment [1] was in the range of 20 to 100 nM. Besides, the MIC in experiment [2] is below 1 µg/mL; in experiment [5], 16 to 64 µg/mL (≈ 34.3 to 137 µM); in experiment [3], above 64 µg/mL; in experiment [6], 1 to 16 µg/mL (≈ 2.14 to 34.3 µM).
With `N#Cc1ccc(CN(Cc2nnc(N)o2)C(=O)CSc2ccccc2Cl)cc1` [compound 9], the MIC in experiment [2] is below 1 µg/mL; in experiment [3], 16 to 64 µg/mL (≈ 38.7 to 155 µM); in experiment [6] it was 1 to 16 µg/mL (≈ 2.42 to 38.7 µM). Further, the concentration for half-maximal inhibition (IC50) in experiment [4] was above 20000 nM.
With `N#Cc1ccc(CN(Cc2nnc(N)o2)C(=O)CSc2cc(F)cc(F)c2Cl)cn1` [Compound No. 21, N-[(5-Amino-1,3,4-oxadiazol-2-yl)methyl]-2-(2-chloro-3,5-difluoro-phenyl)sulfanyl-N-[(6-cyano-3-pyridyl)methyl]acetamide], the concentration for half-maximal inhibition (IC50) in experiment [1] was below 20 nM. Moreover, the MIC in experiment [2] is below 1 µg/mL; in experiment [5], 16 to 64 µg/mL (≈ 35.5 to 142 µM); in experiment [3] it was 16 to 64 µg/mL (≈ 35.5 to 142 µM); in experiment [6] it was 1 to 16 µg/mL (≈ 2.22 to 35.5 µM).
Consider `N#Cc1ccc(CN(Cc2nnc(N)o2)C(=O)CSc2cc(F)ccc2Cl)cc1` [compound 51], for which, in experiment [1], the IC50 is below 20 nM. Moreover, the minimum inhibitory concentration (MIC) was below 1 µg/mL in experiment [2], 1 to 16 µg/mL (≈ 2.32 to 37 µM) in experiment [5], above 64 µg/mL in experiment [3] and 1 to 16 µg/mL (≈ 2.32 to 37 µM) in experiment [6].
As to `Nc1nnc(CN(Cc2ccc(OC3CCOCC3)cc2)C(=O)CSc2ccccc2Cl)o1` [Compound No. 11], the IC50 in experiment [1] is 100 to 1000 nM; in experiment [4], above 20000 nM. The minimum inhibitory concentration (MIC) in experiment [2] is below 1 µg/mL; in experiment [6], 1 to 16 µg/mL (≈ 2.05 to 32.7 µM).

Broadly, the IC50 is the concentration needed to halve the response being measured. As a reminder, the MIC is the smallest concentration in the dilution series that meets the test's criterion for growth inhibition.

(Values after patent publication US20240166612A1, “ARYLTHIOETHER ACETAMIDE AND RELATED COMPOUNDS AND THEIR USE IN TREATING MEDICAL CONDITIONS” (X-Biotix Therapeutics, Inc., priority 2021, published 2024).)
